# In PubChem BioAssay AID1845210 (Molecular Pharmacology Branch, DTP, NCI, 2023):
# pIC50: −log10 of the molar value. “And” between values parts separate entries of the source, which are not always exact repeats. Identical values can stand only once.
# Test system: NCI-H226 complex tumor spheroids, viability
# Test: Anticancer human tumor NCI-H226 cell line growth inhibition;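 also: spheroids exposed to compound for 7 days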;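 as to viability, T/C: 100% = DMSO vehicle control viability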
# Conditions: for viability, T/C: stronger effect = lower value
# In short: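 Complex tumor spheroids combined malignant cells with endothelial cells and mesenchymal stem cells. DNA-damaging drugs and DNA repair inhibitors were tested alone and in combination, at half-log dilutions down from clinical Cmax (top 10 microM if Cmax unknown), 0.25% DMSO final.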
# [1] = curve of first compound, second compound 0.003 µM
smiles,measurement,setting,value
COc1ccc([C@@H](O)c2cc(-c3ncnc4cc(N5CCOCC5)ccc34)c(F)cc2Cl)nn1 + CC[C@@]1(O)C(=O)OCc2c1cc1n(c2=O)Cc2cc3c(CN(C)C)c(O)ccc3nc2-1,pIC50,[1],5.37
same,pIC50,"curve of first compound, second compound 0.00949 µM",5.53
same,pIC50,"curve of first compound, second compound 0.03 µM",5.73
same,pIC50,"curve of first compound, second compound 0.0949 µM",5.61
same,pIC50,"curve of first compound, second compound 0.3 µM",5.82
same,"viability, T/C","second compound 0.003 µM, first compound 0.0316 µM",98.2%
same,"viability, T/C","second compound 0.003 µM, first compound 0.1 µM",96.3%
same,"viability, T/C","second compound 0.003 µM, first compound 0.316 µM",88.3%
same,"viability, T/C","second compound 0.003 µM, first compound 1 µM",71.1%
same,"viability, T/C","second compound 0.003 µM, first compound 3.16 µM",56.7%
same,"viability, T/C","second compound 0.003 µM, first compound 10 µM",34.7%
same,"viability, T/C","second compound 0.00949 µM, first compound 0.0316 µM",87.8%
same,"viability, T/C","second compound 0.00949 µM, first compound 0.1 µM",98.7%
same,"viability, T/C","second compound 0.00949 µM, first compound 0.316 µM",90.6%
same,"viability, T/C","second compound 0.00949 µM, first compound 1 µM",74.5%
same,"viability, T/C","second compound 0.00949 µM, first compound 3.16 µM",48.9%
same,"viability, T/C","second compound 0.00949 µM, first compound 10 µM",35.2%
same,"viability, T/C","second compound 0.03 µM, first compound 0.0316 µM",79.6%
same,"viability, T/C","second compound 0.03 µM, first compound 0.1 µM",81.7%
same,"viability, T/C","second compound 0.03 µM, first compound 0.316 µM",75.6%
same,"viability, T/C","second compound 0.03 µM, first compound 1 µM",57.1%
same,"viability, T/C","second compound 0.03 µM, first compound 3.16 µM",44.1%
same,"viability, T/C","second compound 0.03 µM, first compound 10 µM",30.2%
same,"viability, T/C","second compound 0.0949 µM, first compound 0.0316 µM",90.4%
same,"viability, T/C","second compound 0.0949 µM, first compound 0.1 µM",83.1%
same,"viability, T/C","second compound 0.0949 µM, first compound 0.316 µM",74.8%
same,"viability, T/C","second compound 0.0949 µM, first compound 1 µM",65.2%
same,"viability, T/C","second compound 0.0949 µM, first compound 3.16 µM",44.8%
same,"viability, T/C","second compound 0.0949 µM, first compound 10 µM",30.3%
same,"viability, T/C","second compound 0.3 µM, first compound 0.0316 µM",68.1%
same,"viability, T/C","second compound 0.3 µM, first compound 0.1 µM",73.2%
same,"viability, T/C","second compound 0.3 µM, first compound 0.316 µM",65.9%
same,"viability, T/C","second compound 0.3 µM, first compound 1 µM",55.8%
same,"viability, T/C","second compound 0.3 µM, first compound 3.16 µM",39.8%
same,"viability, T/C","second compound 0.3 µM, first compound 10 µM",30.8%
[2H]c1nc(C)nc([2H])c1-c1cc(NC[C@@H](C)c2cccc3c(C(=O)NC)ccnc23)ncn1,"viability, T/C",compound 0.0316 µM,93.8% and 95.7% and 112%
same,"viability, T/C",compound 0.1 µM,101% and 95.3% and 97.7%
same,"viability, T/C",compound 0.316 µM,103% and 106% and 88.5%
same,"viability, T/C",compound 1 µM,107% and 106% and 93.5%
same,"viability, T/C",compound 3.16 µM,101% and 99.3% and 88.1%
same,"viability, T/C",compound 10 µM,111% and 114% and 106%
same,pIC50,curve of compound,< 5.00
CNCc1ccc(-c2cc(-c3nc(-c4ccc(S(=O)(=O)C(C)C)cc4)cnc3N)on2)cc1 + COc1cc2c(cc1O)CCNC21CSC2c3c(OC(C)=O)c(C)c4c(c3C(COC1=O)N1C(O)C3Cc5cc(C)c(OC)c(O)c5C(C21)N3C)OCO4,pIC50,"curve of first compound, second compound 30 pM",5.79
same,pIC50,"curve of first compound, second compound 94.9 pM",5.83
same,pIC50,"curve of first compound, second compound 0.0003 µM",5.82
same,pIC50,"curve of first compound, second compound 0.000949 µM",5.99
same,pIC50,[1],> 8.02
same,"viability, T/C","second compound 30 pM, first compound 0.00949 µM",89.5%
same,"viability, T/C","second compound 30 pM, first compound 0.03 µM",96.1%
same,"viability, T/C","second compound 30 pM, first compound 0.0949 µM",103%
same,"viability, T/C","second compound 30 pM, first compound 0.3 µM",123%
same,"viability, T/C","second compound 30 pM, first compound 0.949 µM",91.9%
same,"viability, T/C","second compound 30 pM, first compound 3 µM",0.9%
same,"viability, T/C","second compound 94.9 pM, first compound 0.00949 µM",85.9%
same,"viability, T/C","second compound 94.9 pM, first compound 0.03 µM",99.4%
same,"viability, T/C","second compound 94.9 pM, first compound 0.0949 µM",105%
same,"viability, T/C","second compound 94.9 pM, first compound 0.3 µM",127%
same,"viability, T/C","second compound 94.9 pM, first compound 0.949 µM",80.9%
same,"viability, T/C","second compound 94.9 pM, first compound 3 µM",0.45%
same,"viability, T/C","second compound 0.0003 µM, first compound 0.00949 µM",89.7%
same,"viability, T/C","second compound 0.0003 µM, first compound 0.03 µM",105%
same,"viability, T/C","second compound 0.0003 µM, first compound 0.0949 µM",106%
same,"viability, T/C","second compound 0.0003 µM, first compound 0.3 µM",138%
same,"viability, T/C","second compound 0.0003 µM, first compound 0.949 µM",82.9%
same,"viability, T/C","second compound 0.0003 µM, first compound 3 µM",0.44%
same,"viability, T/C","second compound 0.000949 µM, first compound 0.00949 µM",88.1%
same,"viability, T/C","second compound 0.000949 µM, first compound 0.03 µM",94.1%
same,"viability, T/C","second compound 0.000949 µM, first compound 0.0949 µM",124%
same,"viability, T/C","second compound 0.000949 µM, first compound 0.3 µM",91.4%
same,"viability, T/C","second compound 0.000949 µM, first compound 0.949 µM",53.9%
same,"viability, T/C","second compound 0.000949 µM, first compound 3 µM",0.33%
same,"viability, T/C","second compound 0.003 µM, first compound 0.00949 µM",2.12%
same,"viability, T/C","second compound 0.003 µM, first compound 0.03 µM",1.88%
same,"viability, T/C","second compound 0.003 µM, first compound 0.0949 µM",3%
same,"viability, T/C","second compound 0.003 µM, first compound 0.3 µM",1.46%
same,"viability, T/C","second compound 0.003 µM, first compound 0.949 µM",0.37%
same,"viability, T/C","second compound 0.003 µM, first compound 3 µM",0.31%
CC1COCCN1c1cc(-c2ccnn2C)c2ccnc(-c3ccn[nH]3)c2n1 (configuration not stated) + Cn1nnc2c(C(N)=O)ncn2c1=O,pIC50,"curve of first compound, second compound 1 µM",5.72
same,pIC50,"curve of first compound, second compound 3.16 µM",5.76
same,pIC50,"curve of first compound, second compound 10 µM",5.70
same,pIC50,"curve of first compound, second compound 31.6 µM",5.69
same,pIC50,"curve of first compound, second compound 100 µM",5.62
same,"viability, T/C","second compound 1 µM, first compound 0.0316 µM",88.1%
same,"viability, T/C","second compound 1 µM, first compound 0.1 µM",86.8%
same,"viability, T/C","second compound 1 µM, first compound 0.316 µM",79.3%
same,"viability, T/C","second compound 1 µM, first compound 1 µM",59.6%
same,"viability, T/C","second compound 1 µM, first compound 3.16 µM",42.4%
same,"viability, T/C","second compound 1 µM, first compound 10 µM",35.9%
same,"viability, T/C","second compound 3.16 µM, first compound 0.0316 µM",98.8%
same,"viability, T/C","second compound 3.16 µM, first compound 0.1 µM",86.1%
same,"viability, T/C","second compound 3.16 µM, first compound 0.316 µM",78.4%
same,"viability, T/C","second compound 3.16 µM, first compound 1 µM",50.8%
same,"viability, T/C","second compound 3.16 µM, first compound 3.16 µM",47.8%
same,"viability, T/C","second compound 3.16 µM, first compound 10 µM",34.9%
same,"viability, T/C","second compound 10 µM, first compound 0.0316 µM",105%
same,"viability, T/C","second compound 10 µM, first compound 0.1 µM",88.6%
same,"viability, T/C","second compound 10 µM, first compound 0.316 µM",73%
same,"viability, T/C","second compound 10 µM, first compound 1 µM",59.3%
same,"viability, T/C","second compound 10 µM, first compound 3.16 µM",43.1%
same,"viability, T/C","second compound 10 µM, first compound 10 µM",36.1%
same,"viability, T/C","second compound 31.6 µM, first compound 0.0316 µM",90.2%
same,"viability, T/C","second compound 31.6 µM, first compound 0.1 µM",91.5%
same,"viability, T/C","second compound 31.6 µM, first compound 0.316 µM",74.7%
same,"viability, T/C","second compound 31.6 µM, first compound 1 µM",58.3%
same,"viability, T/C","second compound 31.6 µM, first compound 3.16 µM",46.1%
same,"viability, T/C","second compound 31.6 µM, first compound 10 µM",37.9%
same,"viability, T/C","second compound 100 µM, first compound 0.0316 µM",116%
same,"viability, T/C","second compound 100 µM, first compound 0.1 µM",107%
same,"viability, T/C","second compound 100 µM, first compound 0.316 µM",92.9%
same,"viability, T/C","second compound 100 µM, first compound 1 µM",61.5%
same,"viability, T/C","second compound 100 µM, first compound 3.16 µM",46.2%
same,"viability, T/C","second compound 100 µM, first compound 10 µM",42.5%
